Results: PubChem BioAssay AID540351 (The Scripps Research Institute Molecular Screening Center, 2011)
Calls of active or inactive are those of the source. How the calls were made is not given here.

What was measured:
Test in all cases: selectivity profiling over binding targets, CYP450 – biochemical, Ricerca HitProfilingScreen, selectivity assay for S1P3 agonist project, profiling panel (AID 540351)
[1] = molecular target: 5-hydroxytryptamine receptor 2B (Homo sapiens) (UniProt P41595); conditions: Ricerca receptor/enzyme binding panel plus CYP450; Serotonin (5-Hydroxytryptamine) 5-HT2B; at 30 µM; stronger effect = higher value
Adenosine A1 = conditions: Ricerca receptor/enzyme binding panel plus CYP450, at 30 µM, stronger effect = higher value
Adenosine A2A = conditions: Ricerca receptor/enzyme binding panel plus CYP450, at 30 µM, stronger effect = higher value
Adrenergic alpha1A = conditions: Ricerca receptor/enzyme binding panel plus CYP450, at 30 µM, stronger effect = higher value
Adrenergic alpha1B = conditions: Ricerca receptor/enzyme binding panel plus CYP450, at 30 µM, stronger effect = higher value
Adrenergic beta1 = conditions: Ricerca receptor/enzyme binding panel plus CYP450, at 30 µM, stronger effect = higher value
[2] = molecular target: Alpha-2A adrenergic receptor (Homo sapiens) (UniProt P08913); conditions: Ricerca receptor/enzyme binding panel plus CYP450; Adrenergic alpha2A; at 30 µM; stronger effect = higher value
[3] = test system: Alpha-2A adrenergic receptor (Homo sapiens) + Histamine H1 receptor (Homo sapiens) + Mu-type opioid receptor (Homo sapiens); conditions: Ricerca receptor/enzyme binding panel plus CYP450; at 30 µM; stronger effect = higher value
[4] = molecular target: Beta-2 adrenergic receptor (Homo sapiens) (UniProt P07550); conditions: Ricerca receptor/enzyme binding panel plus CYP450; Adrenergic beta2; at 30 µM; stronger effect = higher value
CYP450, 2C19 = conditions: Ricerca receptor/enzyme binding panel plus CYP450, at 30 µM, stronger effect = higher value
Calcium Channel L-Type = conditions: Ricerca receptor/enzyme binding panel plus CYP450, Dihydropyridine, at 30 µM, stronger effect = higher value
Cannabinoid CB1 = conditions: Ricerca receptor/enzyme binding panel plus CYP450, at 30 µM, stronger effect = higher value
[5] = molecular target: Cytochrome P450 1A2 (Homo sapiens) (UniProt P05177); conditions: Ricerca receptor/enzyme binding panel plus CYP450; CYP450, 1A2; at 30 µM; stronger effect = higher value
[6] = molecular target: Cytochrome P450 2C9 (Homo sapiens) (UniProt P11712); conditions: Ricerca receptor/enzyme binding panel plus CYP450; CYP450, 2C9; at 30 µM; stronger effect = higher value
[7] = molecular target: Cytochrome P450 2D6 (Homo sapiens) (UniProt P10635); conditions: Ricerca receptor/enzyme binding panel plus CYP450; CYP450, 2D6; at 30 µM; stronger effect = higher value
[8] = molecular target: Cytochrome P450 3A4 (Homo sapiens) (UniProt P08684); conditions: Ricerca receptor/enzyme binding panel plus CYP450; CYP450, 3A4; at 30 µM; stronger effect = higher value
[9] = molecular target: D(1A) dopamine receptor (Homo sapiens) (UniProt P21728); conditions: Ricerca receptor/enzyme binding panel plus CYP450; Dopamine D1; at 30 µM; stronger effect = higher value
Dopamine D2 = conditions: Ricerca receptor/enzyme binding panel plus CYP450, at 30 µM, stronger effect = higher value
GABAA = conditions: Central, at 30 µM, stronger effect = higher value
Glutamate NMDA = conditions: Ricerca receptor/enzyme binding panel plus CYP450, Phencyclidine, at 30 µM, stronger effect = higher value
Histamine H1 = conditions: Ricerca receptor/enzyme binding panel plus CYP450, at 30 µM, stronger effect = higher value
[10] = molecular target: Muscarinic acetylcholine receptor M2 (Homo sapiens) (UniProt P08172); conditions: Ricerca receptor/enzyme binding panel plus CYP450, at 30 µM, stronger effect = higher value
[11] = molecular target: Muscarinic acetylcholine receptor M3 (Homo sapiens) (UniProt P20309); conditions: Ricerca receptor/enzyme binding panel plus CYP450, at 30 µM, stronger effect = higher value
Nicotinic Acetylcholine = conditions: Ricerca receptor/enzyme binding panel plus CYP450, at 30 µM, stronger effect = higher value
Opiate mu (OP3, MOP) = conditions: Ricerca receptor/enzyme binding panel plus CYP450, at 30 µM, stronger effect = higher value
Prostanoid EP4 = conditions: Ricerca receptor/enzyme binding panel plus CYP450, at 30 µM, stronger effect = higher value
Sigma 1 = conditions: Ricerca receptor/enzyme binding panel plus CYP450, at 30 µM, stronger effect = higher value
Sodium Channel, Site 2 = conditions: Ricerca receptor/enzyme binding panel plus CYP450, at 30 µM, stronger effect = higher value
[12] = test system: Transporter, Norepinephrine (NET); conditions: Ricerca receptor/enzyme binding panel plus CYP450, at 30 µM, stronger effect = higher value
[13] = molecular target: Voltage-gated inwardly rectifying potassium channel KCNH2 (Homo sapiens) (UniProt Q12809); conditions: Ricerca receptor/enzyme binding panel plus CYP450; Potassium Channel hERG; at 30 µM; stronger effect = higher value
Sequence of Voltage-gated inwardly rectifying potassium channel KCNH2 (Homo sapiens) (Q12809 whole entry, looked up): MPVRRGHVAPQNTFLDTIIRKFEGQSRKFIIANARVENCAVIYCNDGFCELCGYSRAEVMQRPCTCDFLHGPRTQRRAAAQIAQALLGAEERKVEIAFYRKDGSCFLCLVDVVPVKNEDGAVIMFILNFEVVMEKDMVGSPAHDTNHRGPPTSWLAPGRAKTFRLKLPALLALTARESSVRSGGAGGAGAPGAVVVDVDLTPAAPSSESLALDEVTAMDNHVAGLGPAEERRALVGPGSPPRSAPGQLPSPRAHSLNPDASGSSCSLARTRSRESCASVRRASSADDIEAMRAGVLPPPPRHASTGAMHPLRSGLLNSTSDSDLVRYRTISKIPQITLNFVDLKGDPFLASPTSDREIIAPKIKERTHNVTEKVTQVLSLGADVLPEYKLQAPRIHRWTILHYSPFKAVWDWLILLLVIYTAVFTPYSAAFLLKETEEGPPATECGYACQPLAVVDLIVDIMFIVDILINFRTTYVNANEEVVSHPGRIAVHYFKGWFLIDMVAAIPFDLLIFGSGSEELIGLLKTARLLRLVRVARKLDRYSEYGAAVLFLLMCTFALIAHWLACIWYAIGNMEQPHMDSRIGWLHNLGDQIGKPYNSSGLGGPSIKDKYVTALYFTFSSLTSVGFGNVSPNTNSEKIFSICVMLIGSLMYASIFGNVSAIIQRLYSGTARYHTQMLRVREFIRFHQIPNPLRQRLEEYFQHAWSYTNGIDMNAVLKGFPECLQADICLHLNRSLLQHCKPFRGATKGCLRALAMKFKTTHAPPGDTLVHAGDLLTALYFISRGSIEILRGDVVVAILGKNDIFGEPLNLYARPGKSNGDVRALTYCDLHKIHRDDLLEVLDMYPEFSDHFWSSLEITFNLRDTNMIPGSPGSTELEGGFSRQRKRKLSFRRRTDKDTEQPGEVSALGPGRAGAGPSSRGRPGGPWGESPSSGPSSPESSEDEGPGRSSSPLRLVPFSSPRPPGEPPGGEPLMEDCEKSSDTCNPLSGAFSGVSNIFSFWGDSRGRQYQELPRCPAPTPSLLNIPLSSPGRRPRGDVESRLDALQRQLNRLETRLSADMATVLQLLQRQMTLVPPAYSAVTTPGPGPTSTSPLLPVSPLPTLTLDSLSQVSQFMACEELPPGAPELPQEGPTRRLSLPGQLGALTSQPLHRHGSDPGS

Sequence of Cytochrome P450 1A2 (Homo sapiens) (P05177 whole entry, looked up): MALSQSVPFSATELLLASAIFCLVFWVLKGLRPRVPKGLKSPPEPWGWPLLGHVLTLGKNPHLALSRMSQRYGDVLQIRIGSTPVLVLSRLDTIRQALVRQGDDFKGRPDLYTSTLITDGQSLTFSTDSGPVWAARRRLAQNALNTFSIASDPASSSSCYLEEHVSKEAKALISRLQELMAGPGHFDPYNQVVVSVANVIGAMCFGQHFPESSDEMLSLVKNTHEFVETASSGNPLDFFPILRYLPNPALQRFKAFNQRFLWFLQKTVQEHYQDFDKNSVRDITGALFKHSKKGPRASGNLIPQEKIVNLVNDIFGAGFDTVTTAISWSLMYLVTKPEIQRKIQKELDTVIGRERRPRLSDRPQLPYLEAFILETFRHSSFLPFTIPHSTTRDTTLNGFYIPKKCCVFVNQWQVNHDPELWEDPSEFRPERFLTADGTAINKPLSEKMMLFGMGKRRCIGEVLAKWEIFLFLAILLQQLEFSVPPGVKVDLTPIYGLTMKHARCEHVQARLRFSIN
Sequence of Muscarinic acetylcholine receptor M2 (Homo sapiens) (P08172 whole entry, looked up): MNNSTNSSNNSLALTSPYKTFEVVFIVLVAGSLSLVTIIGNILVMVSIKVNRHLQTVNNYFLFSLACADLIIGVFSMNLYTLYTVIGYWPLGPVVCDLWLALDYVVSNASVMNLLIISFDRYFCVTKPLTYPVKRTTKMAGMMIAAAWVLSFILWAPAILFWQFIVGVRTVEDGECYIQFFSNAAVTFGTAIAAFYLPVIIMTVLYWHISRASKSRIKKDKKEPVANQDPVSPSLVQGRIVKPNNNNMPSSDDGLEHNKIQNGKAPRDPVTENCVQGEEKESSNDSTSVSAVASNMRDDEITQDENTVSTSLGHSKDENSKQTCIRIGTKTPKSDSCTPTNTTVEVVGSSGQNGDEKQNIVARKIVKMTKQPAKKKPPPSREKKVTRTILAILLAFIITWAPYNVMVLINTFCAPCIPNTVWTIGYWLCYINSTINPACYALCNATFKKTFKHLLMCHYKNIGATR
Sequence of D(1A) dopamine receptor (Homo sapiens) (P21728 whole entry, looked up): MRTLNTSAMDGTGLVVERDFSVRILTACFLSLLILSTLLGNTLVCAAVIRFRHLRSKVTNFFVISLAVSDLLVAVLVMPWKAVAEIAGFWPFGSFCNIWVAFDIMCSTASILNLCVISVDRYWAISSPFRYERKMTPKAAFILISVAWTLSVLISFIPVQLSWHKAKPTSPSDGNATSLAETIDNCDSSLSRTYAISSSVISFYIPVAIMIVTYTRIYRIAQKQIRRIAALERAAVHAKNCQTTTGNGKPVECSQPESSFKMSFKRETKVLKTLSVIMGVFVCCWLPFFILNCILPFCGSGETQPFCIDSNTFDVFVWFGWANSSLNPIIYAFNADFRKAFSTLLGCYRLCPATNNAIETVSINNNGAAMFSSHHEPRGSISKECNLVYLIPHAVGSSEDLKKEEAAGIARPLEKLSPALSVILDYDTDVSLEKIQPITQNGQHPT
Sequence of Muscarinic acetylcholine receptor M3 (Homo sapiens) (P20309 whole entry, looked up): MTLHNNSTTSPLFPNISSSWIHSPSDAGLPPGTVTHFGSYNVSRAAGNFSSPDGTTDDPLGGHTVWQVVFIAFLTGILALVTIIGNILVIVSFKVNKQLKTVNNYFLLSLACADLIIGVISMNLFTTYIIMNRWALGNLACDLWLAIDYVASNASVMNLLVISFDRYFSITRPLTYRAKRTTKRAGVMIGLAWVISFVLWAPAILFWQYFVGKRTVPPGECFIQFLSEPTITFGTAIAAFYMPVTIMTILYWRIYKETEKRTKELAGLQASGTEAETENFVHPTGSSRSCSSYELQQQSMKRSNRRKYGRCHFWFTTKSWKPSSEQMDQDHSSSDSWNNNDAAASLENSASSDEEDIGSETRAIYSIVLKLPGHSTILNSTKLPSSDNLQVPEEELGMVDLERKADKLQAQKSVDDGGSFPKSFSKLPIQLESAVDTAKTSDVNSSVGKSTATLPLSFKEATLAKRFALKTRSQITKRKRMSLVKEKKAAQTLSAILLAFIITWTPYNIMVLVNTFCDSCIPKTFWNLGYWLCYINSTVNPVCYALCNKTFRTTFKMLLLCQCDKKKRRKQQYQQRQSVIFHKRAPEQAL
Sequence of Cytochrome P450 2C9 (Homo sapiens) (P11712 whole entry, looked up): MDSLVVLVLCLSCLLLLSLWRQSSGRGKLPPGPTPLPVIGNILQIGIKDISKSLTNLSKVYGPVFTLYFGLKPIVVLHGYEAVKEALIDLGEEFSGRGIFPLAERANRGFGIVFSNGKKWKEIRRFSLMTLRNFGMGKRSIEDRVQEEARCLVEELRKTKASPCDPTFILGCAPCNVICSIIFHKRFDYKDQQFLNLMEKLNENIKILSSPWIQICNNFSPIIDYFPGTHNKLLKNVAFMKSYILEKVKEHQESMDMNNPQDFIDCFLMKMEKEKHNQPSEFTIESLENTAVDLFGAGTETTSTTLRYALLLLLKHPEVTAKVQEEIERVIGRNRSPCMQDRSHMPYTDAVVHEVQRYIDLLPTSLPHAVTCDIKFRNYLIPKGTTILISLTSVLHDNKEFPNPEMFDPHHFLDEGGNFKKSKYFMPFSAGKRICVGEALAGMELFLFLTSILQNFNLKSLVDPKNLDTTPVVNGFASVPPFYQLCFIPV
Sequence of Alpha-2A adrenergic receptor (Homo sapiens) (P08913 whole entry, looked up): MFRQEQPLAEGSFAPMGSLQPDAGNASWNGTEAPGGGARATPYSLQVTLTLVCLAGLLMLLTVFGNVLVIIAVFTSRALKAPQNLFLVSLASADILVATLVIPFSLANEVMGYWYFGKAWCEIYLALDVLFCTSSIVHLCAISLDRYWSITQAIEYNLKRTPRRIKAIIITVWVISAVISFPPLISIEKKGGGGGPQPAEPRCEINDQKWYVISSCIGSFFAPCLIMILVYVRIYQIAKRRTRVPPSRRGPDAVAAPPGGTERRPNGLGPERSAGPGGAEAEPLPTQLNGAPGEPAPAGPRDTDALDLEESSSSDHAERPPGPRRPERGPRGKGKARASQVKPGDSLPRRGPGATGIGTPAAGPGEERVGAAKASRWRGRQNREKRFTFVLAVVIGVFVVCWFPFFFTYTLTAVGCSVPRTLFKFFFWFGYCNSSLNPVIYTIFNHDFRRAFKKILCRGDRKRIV
Sequence of Cytochrome P450 3A4 (Homo sapiens) (P08684 whole entry, looked up): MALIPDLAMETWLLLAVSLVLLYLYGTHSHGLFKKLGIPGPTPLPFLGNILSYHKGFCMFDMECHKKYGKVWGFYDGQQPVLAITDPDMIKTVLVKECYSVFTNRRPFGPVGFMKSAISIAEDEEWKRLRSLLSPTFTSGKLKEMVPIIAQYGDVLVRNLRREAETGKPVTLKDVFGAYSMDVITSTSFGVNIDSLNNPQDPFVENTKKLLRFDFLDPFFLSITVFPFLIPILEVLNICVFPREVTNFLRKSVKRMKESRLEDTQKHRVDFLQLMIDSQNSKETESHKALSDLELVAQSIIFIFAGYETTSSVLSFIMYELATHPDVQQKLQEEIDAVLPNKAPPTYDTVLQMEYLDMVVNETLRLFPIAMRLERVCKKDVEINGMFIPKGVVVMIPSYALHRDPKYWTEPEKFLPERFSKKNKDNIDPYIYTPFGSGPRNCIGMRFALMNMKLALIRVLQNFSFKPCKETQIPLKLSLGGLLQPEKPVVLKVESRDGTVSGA

O=C(c1cc(C2CC2)on1)N(C1CCCCC1)C1CCCCC1
inhibition [1]: 20% (inactive)
inhibition (Adenosine A1): 38% (inactive)
inhibition (Adenosine A2A): 5% (inactive)
inhibition (Adrenergic alpha1A): 21% (inactive)
inhibition (Adrenergic alpha1B): 13% (inactive)
inhibition (Adrenergic beta1): 45% (inactive)
inhibition [2]: 34% (inactive)
inhibition [3]: -2% (inactive)
inhibition [4]: -1% (inactive)
inhibition (CYP450, 2C19): 68%
inhibition (Calcium Channel L-Type): 28% (inactive)
inhibition (Cannabinoid CB1): 58%
inhibition [5]: 0% (inactive)
inhibition [6]: 24% (inactive)
inhibition [7]: -26% (inactive)
inhibition [8]: 74%
inhibition [9]: 21% (inactive)
inhibition (Dopamine D2): -1% (inactive)
inhibition (GABAA; Ricerca receptor/enzyme binding panel plus CYP450, Flunitrazepam): 1% (inactive)
inhibition (GABAA; Ricerca receptor/enzyme binding panel plus CYP450, Muscimol): -2% (inactive)
inhibition (Glutamate NMDA): 1% (inactive)
inhibition (Histamine H1): 51%
inhibition [10]: -1% (inactive)
inhibition [11]: 47% (inactive)
inhibition (Nicotinic Acetylcholine): -50%
inhibition (Opiate mu (OP3, MOP)): 38% (inactive)
inhibition (Prostanoid EP4): 32% (inactive)
inhibition (Sigma 1): 16% (inactive)
inhibition (Sodium Channel, Site 2): 59%
inhibition [12]: 52%
inhibition [13]: 42% (inactive)
